Consider 24 molecules from patent publication US9096531B2, “Fused imidazole derivative” (TOA EIYO LTD., priority 2010, dated 2015).

For one test, the target named is T1, human T-type calcium channels (human Cav3.2) (Homo sapiens, UniProt O95180).
T1 construct: expressed in transfected cells
T1 sequence (O95180 whole entry): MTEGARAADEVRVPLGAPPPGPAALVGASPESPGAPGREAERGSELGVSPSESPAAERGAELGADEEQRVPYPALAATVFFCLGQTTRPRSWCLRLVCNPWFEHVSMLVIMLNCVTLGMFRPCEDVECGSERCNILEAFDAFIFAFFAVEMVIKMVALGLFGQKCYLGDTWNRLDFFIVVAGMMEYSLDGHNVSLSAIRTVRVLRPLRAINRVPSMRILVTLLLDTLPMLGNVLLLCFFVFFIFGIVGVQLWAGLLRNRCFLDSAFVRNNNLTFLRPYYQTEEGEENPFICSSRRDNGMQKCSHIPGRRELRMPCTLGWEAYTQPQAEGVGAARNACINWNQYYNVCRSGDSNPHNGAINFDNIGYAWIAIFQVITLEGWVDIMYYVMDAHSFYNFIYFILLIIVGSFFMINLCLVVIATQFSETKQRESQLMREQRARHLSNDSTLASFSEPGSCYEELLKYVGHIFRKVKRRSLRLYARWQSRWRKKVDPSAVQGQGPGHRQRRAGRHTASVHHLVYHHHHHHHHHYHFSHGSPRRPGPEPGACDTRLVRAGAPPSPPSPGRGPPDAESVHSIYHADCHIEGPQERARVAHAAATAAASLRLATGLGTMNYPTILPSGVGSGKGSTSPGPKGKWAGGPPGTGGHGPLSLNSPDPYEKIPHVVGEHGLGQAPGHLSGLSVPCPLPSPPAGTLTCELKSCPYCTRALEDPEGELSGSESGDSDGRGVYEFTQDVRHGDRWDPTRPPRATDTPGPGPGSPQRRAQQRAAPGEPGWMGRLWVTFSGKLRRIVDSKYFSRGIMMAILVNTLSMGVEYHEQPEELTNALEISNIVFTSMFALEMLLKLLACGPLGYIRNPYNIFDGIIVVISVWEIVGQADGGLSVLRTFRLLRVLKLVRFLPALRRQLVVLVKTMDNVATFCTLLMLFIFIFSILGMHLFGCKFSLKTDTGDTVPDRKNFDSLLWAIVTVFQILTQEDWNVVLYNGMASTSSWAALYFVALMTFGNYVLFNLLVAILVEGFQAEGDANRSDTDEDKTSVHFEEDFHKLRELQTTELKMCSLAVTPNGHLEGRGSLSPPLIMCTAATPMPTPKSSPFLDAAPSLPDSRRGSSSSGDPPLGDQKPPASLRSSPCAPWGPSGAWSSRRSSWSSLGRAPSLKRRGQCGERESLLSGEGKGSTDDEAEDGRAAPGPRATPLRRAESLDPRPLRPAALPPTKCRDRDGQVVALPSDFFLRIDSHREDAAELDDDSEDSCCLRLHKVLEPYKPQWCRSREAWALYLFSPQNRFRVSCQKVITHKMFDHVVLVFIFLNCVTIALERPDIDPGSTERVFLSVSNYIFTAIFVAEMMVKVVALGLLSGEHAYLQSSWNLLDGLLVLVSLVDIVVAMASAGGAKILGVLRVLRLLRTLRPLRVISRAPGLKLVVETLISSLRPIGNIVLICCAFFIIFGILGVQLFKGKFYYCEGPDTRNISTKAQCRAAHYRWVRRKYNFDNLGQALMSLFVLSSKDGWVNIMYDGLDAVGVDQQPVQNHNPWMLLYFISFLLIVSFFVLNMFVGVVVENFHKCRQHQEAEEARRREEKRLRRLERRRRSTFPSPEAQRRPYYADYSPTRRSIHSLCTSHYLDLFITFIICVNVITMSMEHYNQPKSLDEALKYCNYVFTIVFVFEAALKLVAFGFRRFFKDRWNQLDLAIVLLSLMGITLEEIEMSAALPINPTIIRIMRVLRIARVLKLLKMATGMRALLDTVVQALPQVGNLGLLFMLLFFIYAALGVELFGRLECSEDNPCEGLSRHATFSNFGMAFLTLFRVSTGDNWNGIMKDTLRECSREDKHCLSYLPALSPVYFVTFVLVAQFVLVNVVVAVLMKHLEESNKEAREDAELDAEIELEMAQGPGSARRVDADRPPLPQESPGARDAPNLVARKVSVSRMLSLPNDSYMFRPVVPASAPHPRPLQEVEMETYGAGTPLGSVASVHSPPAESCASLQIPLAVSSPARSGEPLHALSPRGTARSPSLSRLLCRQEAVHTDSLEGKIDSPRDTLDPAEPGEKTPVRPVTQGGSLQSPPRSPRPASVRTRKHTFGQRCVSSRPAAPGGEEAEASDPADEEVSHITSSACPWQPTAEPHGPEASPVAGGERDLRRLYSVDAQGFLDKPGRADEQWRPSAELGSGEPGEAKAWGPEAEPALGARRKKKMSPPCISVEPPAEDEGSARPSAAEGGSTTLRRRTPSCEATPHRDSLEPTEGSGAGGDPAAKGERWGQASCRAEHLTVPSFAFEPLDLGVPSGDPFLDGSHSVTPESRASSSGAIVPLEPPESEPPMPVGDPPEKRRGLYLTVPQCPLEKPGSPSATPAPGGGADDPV
The experiment in a line: Electrophysiological test (patch clamp method) in HEK293 cells stably expressing human Cav3.2. The test is classed as cell-based. To be noted: auto-patch clamp, peak calcium current, holding potential -80 mV, pulse of -20 mV. The protocol: For each test, human embryonic kidney cells (HEK293 cells) in which human T-type calcium channels (human Cav3.2) were stably expressed were used.
HEK293 cells in which human Cav3.2 were stably expressed were cultured at 37° C. in Alpha-MEM containing 10% (v/v) fetal bovine serum (FBS), penicillin (100 U/mL), streptomycin (100 μg/mL) and G418 (250 μg/mL). The cells were dissociated by Accutase (Sigma-Aldrich Co.) treatment and were used as a suspension in the culture medium. The calcium current was measured with an auto-patch clamp system (Port-a-Patch, Nanion Technologies, GmbH), by using an internal solution (50 mmol/L CsCl, 10 mmol/L NaCl, 60 mmol/L CsF, 2 mmol/L MgCl2, 20 mmol/L EGTA, 10 mmol/L HEPES/CsOH, pH 7.2) and an external solution (80 mmol/L NaCl, 1 mmol/L TEAC1, 3 mmol/L KCl, 35 mmol/L CaCl2, 10 mmol/L MgCl2, 10 mmol/L HEPES, pH 7.2).
The inhibitory effect of the compound against the peak current was measured by fixing the holding potential at −80 mV, and applying a pulse of −20 mV to the cells at an interval of 5 seconds. The compound evaluation was carried out by sequentially replacing the external solution containing the compound (1 μmol/L, 3 μmol/L, 10 μmol/L, and 50 μmol/L), and measuring the current. The inhibition ratio was calculated from the peak current value, and the IC50 value was determined by converting the inhibition ratio according to a probit analysis, and then calculating the IC50 value from an approximation formula deduced by linear regression.
A general note: Patch clamp records ionic current or voltage across a cell membrane.
Regarding `CCOC(c1ccc(OC(F)(F)F)cc1)c1nc2cc(F)ccc2[nH]1` (stereo not shown) [Example 70, 2-[Ethoxy(4-trifluoromethoxyphenyl)methyl]-5-fluoro-1H-benzimidazole], the half-maximal inhibitory concentration (IC50) (usually the concentration that gives 50% inhibition) was found to be 1760 nM.
Same read-out and setting: next, `CCOC(c1ccc(OC(F)(F)F)cc1)c1nc2cc(Cl)cnc2[nH]1` (stereo not shown) [Example 53]: 1770 nM; `OC(c1ccc(OC(F)(F)F)cc1)c1nc2cc(Cl)cnc2[nH]1` (stereo not shown) [Example 44, (6-Chloro-3H-imidazo[4,5-b]pyridin-2-yl)-(4-trifluoromethoxyphenyl)methanol]: 1010 nM; `OC(c1ccc(OC(F)(F)F)cc1)c1nc2cc(F)ccc2[nH]1` (stereo not shown) [Example 1, (5-Fluoro-1H-benzimidazol-2-yl)-(4-trifluoromethoxyphenyl)methanol]: 1920 nM.

For another test, the target named is T1, human T-type calcium channels (human Cav3.2). The experiment in a line: Intracellular calcium (Fura2 fluorescence) assay in HEK293 cells stably expressing human Cav3.2. To be noted: Fura2 fluorescence ratio after calcium chloride addition, 15 min with compound. The test is classed as cell-based. The method, then: Representative compounds of the present invention were tested on the selective antagonistic effect against T-type calcium channels (Cav3.2) by way of the following Test Example. For each test, human embryonic kidney cells (HEK293 cells) in which human T-type calcium channels (human Cav3.2) were stably expressed were used.
HEK293 cells in which human Cav3.2 were stably expressed were cultured at 37° C. in Alpha-MEM containing 10% (v/v) fetal bovine serum (FBS), penicillin (100 U/mL), streptomycin (100 μg/mL) and G418 (250 μg/mL). The cells were suspended in the culture medium and seeded onto a 96-well plate, and then the cells were cultured for 24 hours. The culture medium was removed, and the culture medium was replaced with S-MEM containing 5% (v/v) FBS, calcium chloride (0.5 mmol/L), L-glutamine (2 mmol/L), L-alanine (8.9 ng/mL), L-asparagine (13.2 ng/mL), L-aspartic acid (1.33 ng/mL), L-glutamic acid (1.47 ng/mL), glycine (7.5 ng/mL), L-proline (11.5 ng/mL), L-serine (10.5 ng/mL), penicillin (100 U/mL), and streptomycin (100 μg/mL). The cells were cultured for another 24 hours. The culture medium was removed again, and the cells were washed with an assay buffer (140 mmol/L sodium chloride, 5 mmol/L potassium chloride, 0.5 mmol/L magnesium chloride, 0.5 mmol/L calcium chloride, 10 mmol/L glucose, 0.4 mmol/L magnesium sulfate, 10 mmol/L HEPES, and 250 μmol/L sulfinpyrazone, pH 7.4) that had been kept warm at 37° C. Subsequently, the assay buffer in which Fura2-AM, which is a fluorescent Ca^2+ indicator, was dissolved at 5 μM was added to the cells, and the cells were cultured at 37° C. for 30 minutes. The assay buffer containing dissolved Fura2 was removed, and the cells were washed with the assay buffer. Subsequently, the assay buffer to which a test compound had been added was added to the cells, and the cells were cultured for 15 minutes. The plate was placed in a fluorescence analyzer (Flex Station II, Molecular Devices, LLC), the baseline was measured, and then the change in the intracellular calcium concentration that was caused when an assay buffer containing 100 mmol/L calcium chloride was added, was measured (excited at 340 nm and 380 nm, and detected at 510 nm). Thus, the fluorescence intensity ratios obtainable at the respective wavelengths were calculated.
Meanwhile, the test compound solution was prepared by dissolving each of the test compounds in DMSO to a concentration of 10 mmol/L, and then adding the assay buffer to a predetermined concentration. As a control solution, DMSO was used instead of the test compounds.
The inhibitory effect value (%) of each test compound was calculated by subtracting the average value of the fluorescence intensity ratio for the period of 0 to 20 seconds after the initiation of measurement, from the average value of the fluorescence intensity ratio for the period of 45 to 50 seconds after the initiation of measurement, and comparing the activity in the presence of the test compound with the value in the control solution as the maximum activity of Cav3.2.
Curve fitting formula (Model 08: Sigmoidal Inhibition Curve, Vmax+Y2 to Y2) Y=Vmax×(1−(X^n/(K^n+X^n)))+Y2
% inhibition value=(RFU (compound)—RFU(LC))/(RFU (HC)−(RFU(LC))
HC: Average of RFU value for the period of 25 to 30 seconds after the addition of Ca^2+-containing assay buffer after the control solution treatment (for the period of 45 to 50 seconds after the initiation of measurement)
LC: Average of RFU value for the period of 25 to 30 seconds after the addition of non-Ca^2+-containing assay buffer after the control solution treatment (for the period of 45 to 50 seconds after the initiation of measurement)
The RFU in the formula represents the relative fluorescence unit.
In the case of `OC(c1ccc(OC(F)(F)F)cc1)c1nc2cccnc2[nH]1` (stereo not shown) [Example 49], the 50% inhibitory concentration (IC50) is 160 nM.
Still for that read-out and setting: next, `OC(c1ccc2c(c1)OC(F)(F)O2)c1nc2cc(Cl)cnc2[nH]1` (stereo not shown) [Example 50]: 50 nM.
With `CCOC(c1ccc(OC(F)(F)F)cc1)c1nc2cc(F)ccc2[nH]1` (stereo not shown) [Example 70, 2-[Ethoxy(4-trifluoromethoxyphenyl)methyl]-5-fluoro-1H-benzimidazole], the 50% inhibitory concentration (IC50) is 580 nM.
For `CCOC(c1ccc(OC(F)(F)F)cc1)c1nc2cc(C#N)ccc2[nH]1` (stereo not shown) [Example 115, 2-[Ethoxy(4-trifluoromethoxyphenyl)methyl]-1H-benzimidazole-5-carbonitrile], the IC50 is 990 nM.
Same read-out and setting: the result for `CCOC(c1ccc(OC(F)(F)F)cc1)c1nc2cc(Cl)cnc2[nH]1` (stereo not shown) [Example 53] reads 170 nM; that for `CCOC(c1ccc(OCc2ccc(F)cc2)cc1)c1nc2cc(Cl)cnc2[nH]1` (stereo not shown) [Example 58], 700 nM.
`OC(c1ccc(OC(F)(F)C(F)F)cc1)c1nc2cc(F)ccc2[nH]1` (stereo not shown) [Example 6]: the IC50 was determined as 590 nM.
For the molecule `OC(c1ccc(OC(F)(F)F)c(Br)c1)c1nc2cc(F)ccc2[nH]1` (stereo not shown) [Example 13], the half-maximal inhibitory concentration (IC50) is 270 nM.
As for `CCOC(c1ccc2c(c1)OC(F)(F)O2)c1nc2cc(F)ccc2[nH]1` (stereo not shown) [Example 32], the IC50 was found to be 630 nM.
On the same count and under the same terms, the result for `CCOC(c1ccc(C(F)(F)F)cc1)c1nc2cc(F)ccc2[nH]1` (stereo not shown) [Example 27] reads 920 nM; that for `CCCSc1ccc2[nH]c(C(O)c3ccc(OC(F)(F)F)cc3)nc2c1` (stereo not shown) [Example 47], 590 nM; that for `CCOC(c1ccc(OC(F)(F)F)c(F)c1)c1nc2cc(F)ccc2[nH]1` (stereo not shown) [Example 29], 370 nM.
For the molecule `OC(c1ccc(C(F)(F)F)cc1)c1nc2cc(F)ccc2[nH]1` (stereo not shown) [Example 4], the IC50 amounted to 650 nM.
Still for that read-out and setting: next, `OC(c1ccc(OC(F)(F)F)cc1)c1nc2cc(Br)ccc2[nH]1` (stereo not shown) [Example 112]: 370 nM; `OC(c1ccc2c(c1)OC(F)(F)O2)c1nc2cc(F)ccc2[nH]1` (stereo not shown) [Example 16]: 490 nM.
In the case of `OC(c1ccc(OC(F)(F)F)cc1)c1nc2cc(Cl)cnc2[nH]1` (stereo not shown) [Example 44, (6-Chloro-3H-imidazo[4,5-b]pyridin-2-yl)-(4-trifluoromethoxyphenyl)methanol], the IC50 came out at 10 nM.
Still for that read-out and setting: next, `COC(c1ccc(OC(F)(F)F)cc1)c1nc2cc(F)ccc2[nH]1` (stereo not shown) [Example 89]: 780 nM.
Regarding `OC(c1ccc(OC(F)(F)F)cc1)c1nc2cc(F)ccc2[nH]1` (stereo not shown) [Example 1, (5-Fluoro-1H-benzimidazol-2-yl)-(4-trifluoromethoxyphenyl)methanol], the IC50 is 320 nM.
Still for that read-out and setting: the result for `OC(c1ccc(OC(F)(F)F)c(F)c1)c1nc2cc(F)ccc2[nH]1` (stereo not shown) [Example 12] reads 100 nM.
Same read-out and setting: the result for `N#Cc1ccc2[nH]c(C(O)c3ccc(OC(F)(F)F)cc3)nc2c1` (stereo not shown) [Example 114, 2-[Hydroxy(4-trifluoromethoxyphenyl)methyl]-1H-benzimidazole-5-carbonitrile] reads 190 nM; that for `OC(c1ccc(OC(F)(F)F)cc1)c1nc2ccc(Cl)nc2[nH]1` (stereo not shown) [Example 46], 220 nM; that for `CCOc1ccc2[nH]c(C(OCC)c3ccc(SC(F)(F)F)cc3)nc2c1` (stereo not shown) [Example 91], 960 nM.
The same measure, in the same setting: the result for `OC(c1ccc(C(F)(F)F)c(F)c1)c1nc2cc(F)ccc2[nH]1` (stereo not shown) [Example 5] reads 210 nM; that for `OC(c1ccc(SC(F)(F)F)cc1)c1nc2cc(F)ccc2[nH]1` (stereo not shown) [Example 3], 470 nM.
